Where a SMILES comes first, the peptide text is derived from it. [ ]: non-standard residue; d: D form. The star is where a group is joined. NMeF = CN[C@@H](Cc1ccccc1)C(=O)O; Pip = O=C(O)[C@@H]1CCCCN1; ClAc = O=C(CCl)*
Legend:
HCT-116 = assay: cells; settings: Homo sapiens, HCT-116, 96 h
Description: Antitumor activity against human HCT-116 cells assessed as inhibition of cell growth measured after 96 hrs by MTT assay

MCF7 = assay: cells; settings: Homo sapiens, MCF7, 96 h
Description: Antitumor activity against human MCF7 cells assessed as inhibition of cell growth measured after 96 hrs by MTT assay

[1] = molecular target: T1, Peptidyl-prolyl cis-trans isomerase NIMA-interacting 1 (Homo sapiens, UniProt Q13526); assay: Inhibition of human Pin1 using Suc-Ala-Glu-Pro-Phe04-nitroanilide as peptide substrate preincubated for 14 hrs followed by substrate addition and measured immediately by chymotrypsin-coupled PPIase assay
[2] = molecular target: T1, Peptidyl-prolyl cis-trans isomerase NIMA-interacting 1; assay: Inhibition of human Pin1 extracted from Escherichia coli BL21 (DE3) cells using TAMRA labelled Bth-(D-Thr(PO3H2))-Pip-Nal-NH2 peptide probe as substrate by fluorescence polarization assay
[3] = Stability in mouse liver microsomes assessed as half life; assay type: ADME, Microsome

T1 sequence (Q13526 whole entry): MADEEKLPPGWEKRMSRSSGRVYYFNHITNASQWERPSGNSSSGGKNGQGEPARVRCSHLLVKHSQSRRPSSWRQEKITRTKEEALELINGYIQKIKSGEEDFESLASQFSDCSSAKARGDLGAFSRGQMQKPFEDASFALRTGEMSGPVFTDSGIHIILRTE

| SMILES | IC50 (HCT-116) | IC50 (MCF7) | IC50 [1] | IC50 [2] | half-life [3] |
| --- | --- | --- | --- | --- | --- |
| O=[N+]([O-])c1cnc(N(Cc2ccc3ccccc3c2)C2CCS(=O)(=O)C2)nc1Cl (configuration not stated) | > 100 µM | 3.94 µM |  |  |  |
| O=[N+]([O-])c1cnc(Cl)nc1N(Cc1ccc(-c2cccc3ccoc23)s1)C1CCS(=O)(=O)C1 (configuration not stated) | 2.6 µM | 4.24 µM |  |  |  |
| O=[N+]([O-])c1cnc(Cl)nc1N(Cc1cccc2ccccc12)C1CCS(=O)(=O)C1 (configuration not stated) | 5.04 µM | > 100 µM |  |  |  |
| O=S1(=O)CCC(Nc2nc(Cl)nc(Cl)n2)C1 (configuration not stated) |  |  |  | 144 µM |  |
| O=[N+]([O-])c1cnc(Cl)nc1N(Cc1ccc(-c2ccc3ccccc3c2)s1)C1CCS(=O)(=O)C1 (configuration not stated) | 3.35 µM | 4.95 µM |  |  |  |

Results, then the compound that gave them:

| IC50 (HCT-116) | IC50 (MCF7) | IC50 [1] | IC50 [2] | half-life [3] | SMILES |
| --- | --- | --- | --- | --- | --- |
| 7.54 µM | > 100 µM | 0.12 µM | 0.12 µM |  | CC(C)(C)CN(C(=O)CCl)C1CCS(=O)(=O)C1 (configuration not stated) |
|  |  |  | 101 µM |  | O=[N+]([O-])c1cnc(Cl)nc1N(CC1CCCCC1)C1CCS(=O)(=O)C1 (configuration not stated) |
| > 100 µM | 5.26 µM |  |  |  | O=[N+]([O-])c1cnc(N(Cc2coc3ccccc23)C2CCS(=O)(=O)C2)nc1Cl (configuration not stated) |
|  |  |  |  | 1.2 min | CCOC(=O)[C@H](CCCNC(=N)N)NC(=O)[C@H](Cc1c[nH]c2ccccc12)NC(=O)[C@@H]1CCCCN1C(=O)[C@H](Cc1ccccc1)N(C)C(=O)CCl (ClAc-[NMeF][Pip]WR-OEt) |

Reference: ChEMBL document CHEMBL6096711, “Discovery of Novel Pyrimidine Derivatives as Human Pin1 Covalent Inhibitors” (ACS Med Chem Lett, 2025)
